Reference: the NIST ThermoML archive (doi:10.1016/j.jct.2004.04.003)
Several values for one entry are separate records, joined by “and”; a condition that tells them apart may be missing. Equal values may be shown once.

Experiments:
[1] = for vapor or sublimation pressure: Twin ebulliometer; for Triple point temperature: Adiabatic calorimetry
[2] = Molar enthalpy of transition or fusion; conditions: Adiabatic calorimetry
[3] = molar heat capacity at saturation pressure

C1CCC(C2CCCC2)C1 [1,1'-bicyclopentyl]
Conditions	Critical temperature [K]	mass density [kg/m3]	molar heat capacity	vapor or sublimation pressure [kPa]
[1], 384 K, Liquid	–	–	–	9.59
[1], 387.47 K, Liquid	–	–	–	10.89
[1], 390.95 K, Liquid	–	–	–	12.35
[1], 394.45 K, Liquid	–	–	–	13.96
[1], 397.96 K, Liquid	–	–	–	15.75
[1], 401.49 K, Liquid	–	–	–	17.74
[1], 405.02 K, Liquid	–	–	–	19.93
[1], 405.03 K, Liquid	–	–	–	19.93
[1], 412.15 K, Liquid	–	–	–	25.02
[1], 419.33 K, Liquid	–	–	–	31.18
[1], 426.57 K, Liquid	–	–	–	38.56
[1], 433.87 K, Liquid	–	–	–	47.38
[1], 441.22 K, Liquid	–	–	–	57.82
[1], 448.61 K, Liquid	–	–	–	70.12
[1], 456.08 K, Liquid	–	–	–	84.53
[1], 463.61 K, Liquid	–	–	–	101.33
[1], 471.19 K, Liquid	–	–	–	120.79
[1], 478.83 K, Liquid	–	–	–	143.25
[1], 486.53 K, Liquid	–	–	–	169.02
[1], 494.28 K, Liquid	–	–	–	198.49
[1], 502.09 K, Liquid	–	–	–	232.02
[1], 509.97 K, Liquid	–	–	–	270.02
[1], 662.5 K, Gas	–	114.4	–	–
[1], 682.8 K, Gas	–	171.2	–	–
[1], 685.1 K, Liquid	–	366	–	–
[1], 687.3 K, Liquid	–	347.2	–	–
[1], 689.6 K, Liquid	–	311	–	–
[1], 689.8 K, Gas	–	244.4	–	–
[1], Liquid, DTA	690	–	–	–
[3], 10 K, Crystal 3, Vacuum adiabatic calorimetry	–	–	2.73 J/K/mol	–
[3], 11.5 K, Crystal 3, Vacuum adiabatic calorimetry	–	–	4.08 J/K/mol	–
[3], 11.8 K, Crystal 3, Vacuum adiabatic calorimetry	–	–	4.35 J/K/mol	–
[3], 13.17 K, Crystal 3, Vacuum adiabatic calorimetry	–	–	5.8 J/K/mol	–
[3], 13.37 K, Crystal 3, Vacuum adiabatic calorimetry	–	–	6.03 J/K/mol	–
[3], 14.83 K, Crystal 3, Vacuum adiabatic calorimetry	–	–	7.75 J/K/mol	–
[3], 14.99 K, Crystal 3, Vacuum adiabatic calorimetry	–	–	7.95 J/K/mol	–
[3], 16.64 K, Crystal 3, Vacuum adiabatic calorimetry	–	–	10.09 J/K/mol	–
[3], 16.69 K, Crystal 3, Vacuum adiabatic calorimetry	–	–	10.19 J/K/mol	–
[3], 18.46 K, Crystal 3, Vacuum adiabatic calorimetry	–	–	12.62 J/K/mol	–
[3], 18.63 K, Crystal 3, Vacuum adiabatic calorimetry	–	–	12.87 J/K/mol	–
[3], 20 K, Crystal 3, Vacuum adiabatic calorimetry	–	–	14.82 J/K/mol	–
[3], 20.51 K, Crystal 3, Vacuum adiabatic calorimetry	–	–	15.56 J/K/mol	–
[3], 20.71 K, Crystal 3, Vacuum adiabatic calorimetry	–	–	15.86 J/K/mol	–
[3], 22.72 K, Crystal 3, Vacuum adiabatic calorimetry	–	–	18.82 J/K/mol	–
[3], 22.99 K, Crystal 3, Vacuum adiabatic calorimetry	–	–	19.31 J/K/mol	–
[3], 25.1 K, Crystal 3, Vacuum adiabatic calorimetry	–	–	22.6 J/K/mol	–
[3], 25.32 K, Crystal 3, Vacuum adiabatic calorimetry	–	–	22.88 J/K/mol	–
[3], 27.67 K, Crystal 3, Vacuum adiabatic calorimetry	–	–	26.42 J/K/mol	–
[3], 30 K, Crystal 3, Vacuum adiabatic calorimetry	–	–	29.89 J/K/mol	–
[3], 30.51 K, Crystal 3, Vacuum adiabatic calorimetry	–	–	30.65 J/K/mol	–
[3], 33.62 K, Crystal 3, Vacuum adiabatic calorimetry	–	–	35.24 J/K/mol	–
[3], 37.09 K, Crystal 3, Vacuum adiabatic calorimetry	–	–	40.13 J/K/mol	–
[3], 40 K, Crystal 3, Vacuum adiabatic calorimetry	–	–	44.07 J/K/mol	–
[3], 40.84 K, Crystal 3, Vacuum adiabatic calorimetry	–	–	45.17 J/K/mol	–
[3], 44.81 K, Crystal 3, Vacuum adiabatic calorimetry	–	–	49.8 J/K/mol	–
[3], 49.26 K, Crystal 3, Vacuum adiabatic calorimetry	–	–	55.04 J/K/mol	–
[3], 50 K, Crystal 3, Vacuum adiabatic calorimetry	–	–	55.91 J/K/mol	–
[3], 54.23 K, Crystal 3, Vacuum adiabatic calorimetry	–	–	60.6 J/K/mol	–
[3], 54.24 K, Crystal 3, Vacuum adiabatic calorimetry	–	–	60.62 J/K/mol	–
[3], 59.45 K, Crystal 3, Vacuum adiabatic calorimetry	–	–	65.6 J/K/mol	–
[3], 60 K, Crystal 3, Vacuum adiabatic calorimetry	–	–	66.15 J/K/mol	–
[3], 65.02 K, Crystal 3, Vacuum adiabatic calorimetry	–	–	70.77 J/K/mol	–
[3], 70 K, Crystal 3, Vacuum adiabatic calorimetry	–	–	74.88 J/K/mol	–
[3], 71.12 K, Crystal 3, Vacuum adiabatic calorimetry	–	–	75.75 J/K/mol	–
[3], 77.81 K, Crystal 3, Vacuum adiabatic calorimetry	–	–	80.69 J/K/mol	–
[3], 80 K, Crystal 3, Vacuum adiabatic calorimetry	–	–	82.21 J/K/mol	–
[3], 84.9 K, Crystal 3, Vacuum adiabatic calorimetry	–	–	85.44 J/K/mol	–
[3], 90 K, Crystal 3, Vacuum adiabatic calorimetry	–	–	88.7 J/K/mol	–
[3], 90.4 K, Crystal 3, Vacuum adiabatic calorimetry	–	–	88.97 J/K/mol	–
[3], 92.15 K, Crystal 3, Vacuum adiabatic calorimetry	–	–	90 J/K/mol	–
[3], 95.17 K, Crystal 3, Vacuum adiabatic calorimetry	–	–	91.72 J/K/mol	–
[3], 97.64 K, Crystal 3, Vacuum adiabatic calorimetry	–	–	93.21 J/K/mol	–
[3], 100 K, Crystal 3, Vacuum adiabatic calorimetry	–	–	94.56 J/K/mol	–
[3], 102.4 K, Crystal 3, Vacuum adiabatic calorimetry	–	–	95.85 J/K/mol	–
[3], 105.1 K, Crystal 3, Vacuum adiabatic calorimetry	–	–	97.46 J/K/mol	–
[3], 110 K, Crystal 3, Vacuum adiabatic calorimetry	–	–	100.28 J/K/mol	–
[3], 112.84 K, Crystal 3, Vacuum adiabatic calorimetry	–	–	102.05 J/K/mol	–
[3], 116.54 K, Crystal 3, Vacuum adiabatic calorimetry	–	–	104.26 J/K/mol	–
[3], 118.13 K, Crystal 3, Vacuum adiabatic calorimetry	–	–	105.18 J/K/mol	–
[3], 118.17 K, Crystal 3, Vacuum adiabatic calorimetry	–	–	105.56 J/K/mol	–
[3], 120 K, Crystal 3, Vacuum adiabatic calorimetry	–	–	106.6 J/K/mol	–
[3], 120.99 K, Crystal 3, Vacuum adiabatic calorimetry	–	–	107.39 J/K/mol	–
[3], 126.75 K, Crystal 3, Vacuum adiabatic calorimetry	–	–	111.08 J/K/mol	–
[3], 128.4 K, Crystal 1, Vacuum adiabatic calorimetry	–	–	115.78 J/K/mol	–
[3], 128.4 K, Crystal 3, Vacuum adiabatic calorimetry	–	–	112.23 J/K/mol	–
[3], 130 K, Crystal 1, Vacuum adiabatic calorimetry	–	–	116.49 J/K/mol	–
[3], 133.46 K, Crystal 2, Vacuum adiabatic calorimetry	–	–	118.05 J/K/mol	–
[3], 133.78 K, Crystal 2, Vacuum adiabatic calorimetry	–	–	118.67 J/K/mol	–
[3], 134.12 K, Crystal 2, Vacuum adiabatic calorimetry	–	–	118.41 J/K/mol	–
[3], 135.2 K, Crystal 2, Vacuum adiabatic calorimetry	–	–	118.41 J/K/mol	–
[3], 139.41 K, Crystal 2, Vacuum adiabatic calorimetry	–	–	121.01 J/K/mol	–
[3], 140 K, Crystal 1, Vacuum adiabatic calorimetry	–	–	121.32 J/K/mol	–
[3], 142.47 K, Crystal 2, Vacuum adiabatic calorimetry	–	–	122.75 J/K/mol	–
[3], 143.12 K, Crystal 2, Vacuum adiabatic calorimetry	–	–	122.93 J/K/mol	–
[3], 150 K, Crystal 1, Vacuum adiabatic calorimetry	–	–	126.87 J/K/mol	–
[3], 151.25 K, Crystal 2, Vacuum adiabatic calorimetry	–	–	127.64 J/K/mol	–
[3], 152.11 K, Crystal 2, Vacuum adiabatic calorimetry	–	–	128.17 J/K/mol	–
[3], 160 K, Crystal 1, Vacuum adiabatic calorimetry	–	–	133.12 J/K/mol	–
[3], 160.68 K, Crystal 2, Vacuum adiabatic calorimetry	–	–	133.74 J/K/mol	–
[3], 160.78 K, Crystal 2, Vacuum adiabatic calorimetry	–	–	133.46 J/K/mol	–
[3], 166.89 K, Crystal 2, Vacuum adiabatic calorimetry	–	–	138.79 J/K/mol	–
[3], 170 K, Crystal 1, Vacuum adiabatic calorimetry	–	–	140.08 J/K/mol	–
[3], 171.5 K, Crystal 1, Vacuum adiabatic calorimetry	–	–	141.19 J/K/mol and 136.32 J/K/mol	–
[3], 173.81 K, Crystal 1, Vacuum adiabatic calorimetry	–	–	137.58 J/K/mol	–
[3], 178.13 K, Crystal 1, Vacuum adiabatic calorimetry	–	–	139.77 J/K/mol	–
[3], 180 K, Crystal 1, Vacuum adiabatic calorimetry	–	–	141.36 J/K/mol	–
[3], 181.67 K, Crystal 1, Vacuum adiabatic calorimetry	–	–	142.75 J/K/mol	–
[3], 182.42 K, Crystal 1, Vacuum adiabatic calorimetry	–	–	143.41 J/K/mol	–
[3], 186.12 K, Crystal 1, Vacuum adiabatic calorimetry	–	–	145.42 J/K/mol	–
[3], 190 K, Crystal 1, Vacuum adiabatic calorimetry	–	–	148.08 J/K/mol	–
[3], 190.41 K, Crystal 1, Vacuum adiabatic calorimetry	–	–	148.06 J/K/mol	–
[3], 194.17 K, Crystal 1, Vacuum adiabatic calorimetry	–	–	151.17 J/K/mol	–
[3], 200 K, Crystal 1, Vacuum adiabatic calorimetry	–	–	155.66 J/K/mol	–
[3], 202.37 K, Crystal 1, Vacuum adiabatic calorimetry	–	–	157.69 J/K/mol	–
[3], 210 K, Crystal 1, Vacuum adiabatic calorimetry	–	–	164.11 J/K/mol	–
[3], 210.53 K, Crystal 1, Vacuum adiabatic calorimetry	–	–	164.59 J/K/mol	–
[3], 215.22 K, Crystal 1, Vacuum adiabatic calorimetry	–	–	168.8 J/K/mol	–
[3], 218.83 K, Crystal 1, Vacuum adiabatic calorimetry	–	–	172.67 J/K/mol	–
[3], 220 K, Crystal 1, Vacuum adiabatic calorimetry	–	–	173.41 J/K/mol	–
[3], 223.28 K, Crystal 1, Vacuum adiabatic calorimetry	–	–	177.54 J/K/mol	–
[3], 230 K, Crystal 1, Vacuum adiabatic calorimetry	–	–	183.54 J/K/mol	–
[3], 230.93 K, Crystal 1, Vacuum adiabatic calorimetry	–	–	187.18 J/K/mol	–
[3], 237.82 K, Crystal 1, Vacuum adiabatic calorimetry	–	–	192.05 J/K/mol	–
[3], 420 K, Liquid	–	–	312.05 J/K/mol	–
[3], 440 K, Liquid	–	–	324.49 J/K/mol	–
[3], 460 K, Liquid	–	–	336.88 J/K/mol	–
[3], 480 K, Liquid	–	–	349.1 J/K/mol	–
[3], 500 K, Liquid	–	–	361.07 J/K/mol	–
[3], 520 K, Liquid	–	–	372.68 J/K/mol	–
[3], 540 K, Liquid	–	–	383.83 J/K/mol	–
[3], 560 K, Liquid	–	–	394.48 J/K/mol	–
[3], 580 K, Liquid	–	–	404.71 J/K/mol	–
[3], 600 K, Liquid	–	–	414.76 J/K/mol	–

Conditions	Molar enthalpy of transition or fusion, Crystal 1 [kJ/mol]	Molar enthalpy of transition or fusion, Crystal 2 [kJ/mol]	Triple point temperature, Crystal 1 [K]	Triple point temperature, Crystal 2 [K]	Triple point temperature, Crystal 3 [K]
[1]	–	–	237.82	171.5	128.4
[2]	13.4	0.257	–	–	–

[3], Liquid, Vacuum adiabatic calorimetry
Conditions	molar heat capacity [J/K/mol]
235.7 K	209.39
237.82 K	210.18
240 K	211.02
242.86 K	212.18
250 K	215.09
251.35 K	215.65
251.38 K	215.6
260 K	219.43
260.38 K	219.61
260.4 K	219.59
269.99 K	224.12
270 K	224.11
279.85 K	228.87
280 K	228.97
289.97 K	234.24
290 K	234.26
298.15 K	238.69
300 K	239.71
300.32 K	239.88
303.62 K	241.76
312.36 K	246.68
320 K	251.11
321.76 K	252.14
331.4 K	257.76
340 K	262.83
340.79 K	263.29
350.44 K	269.11
360 K	274.85
360.31 K	275.02
369.98 K	281.03
379.48 K	286.87
380 K	287.22
388.81 K	292.97
400 K	299.69
